Molecules are shown by their SMILES.

Type in all cases: cell-based
In test [1] the target is T1, hBGT1 (Homo sapiens, UniProt P48065).
T1 sequence (P48065 1-614): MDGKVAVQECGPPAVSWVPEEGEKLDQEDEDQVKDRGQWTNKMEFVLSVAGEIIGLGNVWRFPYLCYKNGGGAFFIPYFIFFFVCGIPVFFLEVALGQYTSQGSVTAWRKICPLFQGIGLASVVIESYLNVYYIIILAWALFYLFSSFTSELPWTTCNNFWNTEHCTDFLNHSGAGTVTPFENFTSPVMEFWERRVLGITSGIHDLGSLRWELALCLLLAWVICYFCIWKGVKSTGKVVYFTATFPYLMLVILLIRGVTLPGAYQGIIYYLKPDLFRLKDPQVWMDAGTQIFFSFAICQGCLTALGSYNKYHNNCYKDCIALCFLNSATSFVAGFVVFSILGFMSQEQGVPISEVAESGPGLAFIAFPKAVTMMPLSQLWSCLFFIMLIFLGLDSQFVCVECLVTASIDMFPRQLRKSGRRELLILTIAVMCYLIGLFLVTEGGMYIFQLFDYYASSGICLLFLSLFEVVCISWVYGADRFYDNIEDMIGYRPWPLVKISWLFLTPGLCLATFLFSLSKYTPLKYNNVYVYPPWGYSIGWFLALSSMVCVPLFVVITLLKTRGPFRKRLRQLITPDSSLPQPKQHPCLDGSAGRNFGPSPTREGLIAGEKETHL
Kind of test: hBGT1 competition uptake assay (inhibition of 3H-GABA uptake). Details: expressed in transfected cells; host or cells: HEK-TREx cells (HEK-TREx-BGT1 inducible line), induced with tetracycline/doxycycline and butyrate. To be noted: HEK-TREx-BGT1 cells induced to express BGT1; FIG. 2. As for the experimental part:
Alternatively, cells were washed manually with equivalent volumes using a multichannel pipettor.
Non-specific uptake was determined by measuring the uptake into cells not induced to express the transporter (“no tet”).

In test [2] the target is T1, hBGT1. Briefly: hBGT1 direct uptake assay (LC-MS-MS). Also on record: expressed in transfected cells; host or cells: HEK-TREx cells (HEK-TREx-BGT1 inducible line), induced with tetracycline/doxycycline and butyrate. The note with it: HEK-TREx-hBGT1 cells induced to express hBGT1. As for the experimental part: Four concentrations (bracketing the affinity as measured by competition assays) per compound were routinely tested. Non-specific uptake was determined by measuring the uptake into cells not induced to express the transporter (“no tet”).
Typically, four concentrations bracketing the IC50 were tested. […] The samples were robustly vortexed and centrifuged for 10 minutes at 13,200 rpm to spin down any precipitate. […] Three additional 2-fold dilutions were made in the subsequent rows (B-D or […]) in HBSS.
An internal standard of 50 μM propranolol in 50:50 ethanol:water was also prepared.
The cells were washed twice in room temperature HBSS (100 μl/well/wash) using a 96-well plate washer (Bio Tek ELX405). Alternatively, cells were washed manually with equivalent volumes using a multichannel pipettor. Immediately before the assay was begun, the final 100 μl wash solution was removed from the cells.
After the final wash, as much of the wash buffer as possible was removed by aspirating the wells with a probe that reached the bottom of the wells. (Residual salts from the wash buffer can adversely affect the LC-MS-MS by disrupting the LC method or by suppressing the MS signal.) 150 μl of a 50:50 ethanol:water solution was added to each well to lyse the cells and extract the test compound. The plate was covered and allowed to sit for 20 minutes at room temperature to ensure cell lysis. […]

For test [3], the target named is T1, hBGT1. Kind of test: Oocyte uptake assay with BGT1 cRNA-injected Xenopus oocytes. Details: expressed in transfected cells; host or cells: Xenopus oocytes injected with in vitro transcribed BGT1 cRNA. To be noted: oocytes expressing BGT1 protein.
Protocol: For expression in Xenopus oocytes, in vitro BGT1 cRNA is prepared and injected into defoliculated oocytes.
To measure directly the uptake of possible substrates, an oocyte uptake assay is performed in which uptake of compounds is measured by mass spectroscopy. […] Oocytes injected with BGT1 cRNA are incubated at 16-18° C. until maximal transporter expression is reached. Oocytes from the same batch, not injected with cRNA, can be used as a control. […] Subpools are homogenized in 150 μl of ice cold 80% MeOH/H2O and lysed manually.

For `NCCCC(=O)O` [GABA, γ-aminobutyric acid], the “Effect of unlabeled competitor on uptake of labeled GABA” value in test [1] was “the uptake of labeled GABA decreased as the concentration of unlabeled GABA increased”. In addition, in test [2], the “Direct Uptake Vmax” value was determined as 110 pmol/min/well. `NCCCC(=O)O` [^3H-GABA]: the “3H-GABA uptake versus noninjected controls” value in test [3] was “higher levels of ^3H-GABA uptake than noninjected controls”.

These data come from patent US7704695B2, “Screening of compounds for BGT1 transporter activity” (XenoPort, Inc., priority 2005, dated 2010).
